Earlier results on one molecule are cited in PubChem BioAssay AID1259409 (Chemical Carcinogenesis Research Information System (CCRIS), 2018).

The series concerns rodent chemically induced tumor inhibition, incidence and multiplicity. Put plainly: CCRIS tumor inhibitor studies. The settings on record: Carcinogen: DIETHYLNITROSAMINE, 55-18-5, 684-93-5, N-BUTYL-N-(4-HYDROXYBUTYL)NITROSAMINE, 3817-11-6, Carcinogen: DIETHYLNITROSAMINE, 55-18-5, 684-93-5, N-BUTYL-N-(4-HYDROXYBUTYL)NITROSAMINE, 3817-11-6, Dose [Inhibitor]: 0, Route [Inhibitor]: ORAL, Species: RAT.

In the case of `CCCCCCCCCCCCC(=O)COC1=C(O)C(=O)O[C@@H]1[C@@H](O)CO`, the “tumour outcome (control, treated, inhibition, significance)” value (N-METHYL-N-NITROSOUREA, DIMETHY, N-METHYL-N-NITROSOUREA, DIMETHY, 1% IN THE DIET FOR 24 WK BEGINNING 1 DAY POST CARCINOGEN TREATMENT (STUDY DURATION: 28 WK), Strain/Sex: F344/MALE, Target Tissue: Type of Lesion: URINARY BLADDER: PAPILLOMA, Dose [Carcinogen]: 100 MG/KG BW DEN ONCE FOLLOWED BY 20 MG/KG BW MNU 4 TIMES AND 0.05% BBN IN DRINKING WATER DURING FIRST 2 WK THEN 40 MG/K, Promoter: NONE USED) was 7%, 0%, 100%, not significant; the “tumour outcome (control, treated, inhibition, significance)” value (N-METHYL-N-NITROSOUREA, DIMETHY, N-METHYL-N-NITROSOUREA, DIMETHY, 1% IN THE DIET FOR 30 D BEGINNING 1 D PRIOR TO CARCINOGEN TREATMENT (STUDY DURATION: 28 WK), Strain/Sex: F344/MALE, Target Tissue: Type of Lesion: THYROID: CARCINOMA, Dose [Carcinogen]: 100 MG/KG BW DEN ONCE FOLLOWED BY 20 MG/KG BW MNU 4 TIMES AND 0.05% BBN IN DRINKING WATER DURING FIRST 2 WK THEN 40 MG/K, Promoter: NONE USED) is on record as 7%, 0%, 100%, not significant; the “tumour outcome (control, treated, inhibition, significance)” value (N-METHYL-N-NITROSOUREA, DIMETHY, N-METHYL-N-NITROSOUREA, DIMETHY, 1% IN THE DIET FOR 30 D BEGINNING 1 DAY PRIOR TO CARCINOGEN TREATMENT (STUDY DURATION: 28 WK), Strain/Sex: F344/ MALE, Target Tissue: Type of Lesion: URINARY BLADDER: PAPILLOMA, Dose [Carcinogen]: 100 MG/KG BW DEN ONCE FOLLOWED BY 20 MG/KG BW MNU 4 TIMES AND 0.05% BBN IN DRINKING WATER DURING FIRST 2 WK THEN 40 MG/K, Promoter: NONE USED) is listed as 7%, 0%, 100%, not significant; the “tumour outcome (control, treated, inhibition, significance)” value (N-METHYL-N-NITROSOUREA, DIMETHY, N-METHYL-N-NITROSOUREA, DIMETHY, 1% IN THE DIET FOR 30 D BEGINNING 1 DAY PRIOR TO CARCINOGEN TREATMENT (STUDY DURATION: 28 WK), Strain/Sex: F344/MALE, Target Tissue: Type of Lesion: LARGE INTESTINE: CARCINOMA, Dose [Carcinogen]: 100 MG/KG BW DEN ONCE FOLLOWED BY 20 MG/KG BW MNU 4 TIMES AND 0.05% BBN IN DRINKING WATER DURING FIRST 2 WK THEN 40 MG/K, Promoter: NONE USED) was 7%, 7%, 0%, not significant; the “tumour outcome (control, treated, inhibition, significance)” value (N-METHYL-N-NITROSOUREA, DIMETHY, N-METHYL-N-NITROSOUREA, DIMETHY, 1% IN THE DIET FOR 30 D BEGINNING 1 DAY PRIOR TO CARCINOGEN TREATMENT (STUDY DURATION: 28 WK), Strain/Sex: F344/MALE, Target Tissue: Type of Lesion: SMALL INTESTINE: ADENOMA, Dose [Carcinogen]: 100 MG/KG BW DEN ONCE FOLLOWED BY 20 MG/KG BW MNU 4 TIMES AND 0.05% BBN IN DRINKING WATER DURING FIRST 2 WK THEN 40 MG/K, Promoter: NONE USED) was 33%, 21%, 36%, not significant; the “tumour outcome (control, treated, inhibition, significance)” value (N-METHYL-N-NITROSOUREA, DIMETHY, N-METHYL-N-NITROSOUREA, DIMETHY, 1% IN THE DIET FOR 30 DAYS BEGINNING 1 D PRIOR TO CARCINOGEN TREATMENT (STUDY DURATION: 28 WK), Strain/Sex: F344/MALE, Target Tissue: Type of Lesion: SMALL INTESTINE: CARCINOMA, Dose [Carcinogen]: 100 MG/KG BW DEN ONCE FOLLOWED BY 20 MG/KG BW MNU 4 TIMES AND 0.05% BBN IN DRINKING WATER DURING FIRST 2 WK THEN 40 MG/K, Promoter: NONE USED) is 7%, 14%, -100%, not significant. In addition, the “tumour outcome (control, treated, inhibition, significance)” value (N-METHYL-N-NITROSOUREA, DIMETHY, N-METHYL-N-NITROSOUREA, DIMETHY, 1% IN THE DIET FOR 30 DAYS BEGINNING 1 DAY PRIOR TO CARCINOGEN TREATMENT (STUDY DURATION: 28 WK), Strain/Sex: F344/MALE, Target Tissue: Type of Lesion: URINARY BLADDER: CARCINOMA) is given as 7%, 0%, 100%, not significant and the “tumour outcome (control, treated, inhibition, significance)” value (N-METHYL-NITROSOUREA, DIMETHYLH, N-METHYL-NITROSOUREA, DIMETHYLH, 1% IN THE DIET FOR 30 DAYS BEGINNING 1 DAY PRIOR TO CARCINOGEN TREATMENT (STUDY DURATION: 28 WK), Strain/Sex: F344/MALE, Target Tissue: Type of Lesion: LARGE INTESTINE: ADENOMA, Dose [Carcinogen]: 100 MG/KG BW DEN ONCE FOLLOWED BY 20 MG/KG BW MNU 4 TIMES AND 0.05% BBN IN DRINKING WATER DURING FIRST 2 WK THEN 40 MG/K, Promoter: NONE USED) was 27%, 29%, -7%, not significant.
